In the case of `O=C(c1ccccc1)N1C[C@@H](F)[C@H](F)C1`, the logP came out at 1.08.
`O=C(c1ccccc1)N1CC2CCC1(C(F)(F)F)C2` (stereo unspecified) came in with a logP of 2.2.
To `O=C(c1ccccc1)N1CC2CCCC(C2)C1` belongs 2.36; to `O=C(Nc1ccccc1)[C@H]1C[C@@H]2[C@H](C1)C2(F)F`, 2.37.
To `O=C(NC1CCC1(F)F)c1ccccc1` (stereo unspecified) belongs 1.7; to `O=C(c1ccccc1)N1CC(C(F)(F)F)C1`, 1.66; to `CCC(F)(F)CC(=O)Nc1ccccc1`, 2.26.
To `O=C(Nc1ccccc1)C1CCCC1(F)F` (stereo unspecified) belongs 2.25.
For `O=C(NCC(F)F)c1ccccc1`, the lipophilicity (logP) amounted to 1.37.
Take `O=C(N[C@@H]1CC[C@H]1C(F)F)c1ccccc1`: the log partition coefficient (logP) was 1.94.
To `O=C(NC1CCC(F)(F)C1)c1ccccc1` (stereo unspecified) belongs 2.02; to `O=C(c1ccccc1)N1CCCC1CF` (stereo unspecified), 1.75; to `O=C(NCCC(F)(F)F)c1ccccc1`, 1.93.
For `O=C(c1ccccc1)N1CC(CF)C1` the value was 0.93; for `O=C(N[C@H]1C[C@H](CF)C1)c1ccccc1`, 1.78.
For `O=C(NC1CCCCC1(F)F)c1ccccc1` (stereo unspecified) the value was 2.16; for `O=C(N[C@@H]1C[C@@H]2[C@H](C1)C2(F)F)c1ccccc1`, 2.23; for `O=C(c1ccccc1)N1CC2CCC(C2)C1`, 2.31.
Compound `O=C(c1ccccc1)N1CCCC(F)C1` (stereo unspecified) displayed a logP of 1.26.
For `O=C(NC1CC1)c1ccccc1` the value was 1.29.
For `O=C(c1ccccc1)N1CCCC1` the value was 1.19; for `O=C(Nc1ccccc1)[C@@H]1CC[C@H]1CF`, 2.11.
For `C[C@@H]1C[C@H]1C(=O)Nc1ccccc1` the value was 2.42; for `O=C(NC1CCCC(F)(F)CC1)c1ccccc1` (stereo unspecified), 2.5; for `O=C(c1ccccc1)N1CC2COCC(C1)C2(F)F`, 1.19.
`O=C(c1ccccc1)N1CCC1C(F)F` (stereo unspecified) gave a logP of 1.51.
For `O=C(N[C@H]1C[C@@H](F)C1)c1ccccc1` the value was 1.67; for `O=C(Nc1ccccc1)C1(C(F)F)CCC1`, 2.19.
To `O=C(Nc1ccccc1)C1CCCCCC1` belongs 3.24.
To `O=C(Nc1ccccc1)[C@@H]1CC[C@H]1C(F)(F)F` belongs 2.88; to `O=C(NC1CCC1)c1ccccc1`, 1.95; to `O=C(c1ccccc1)N1C[C@H](F)C[C@H](F)C1`, 0.58.
As to `O=C(c1ccccc1)N1CCCCC1C(F)F` (stereo unspecified), the lipophilicity (logP) is 2.04.
`O=C(NC1CC2(CC(F)C2)C1)c1ccccc1` (stereo unspecified) returned a lipophilicity (logP) of 2.39.
As to `O=C(NC1CCCCCC1)c1ccccc1`, the logP was found to be 3.03.
To `O=C(Nc1ccccc1)C1CCCCCC1(F)F` (stereo unspecified) belongs 2.9.
For `O=C(c1ccccc1)N1CCCC(C(F)(F)F)C1` (stereo unspecified) the value was 2.21.
To `O=C(Nc1ccccc1)[C@H]1C[C@@H]2C[C@@H]2C1` belongs 2.87; to `O=C(NC1CC12CC2(F)F)c1ccccc1` (stereo unspecified), 2.04.
Consider `O=C(c1ccccc1)N1CC2CS(=O)(=O)CC(C1)C2(F)F`, for which the logP is 0.2.
The compound `O=C(NCCCCF)c1ccccc1` returned a lipophilicity (logP) of 1.56.
To `O=C(Nc1ccccc1)C1CCCCC(F)(F)C1` (stereo unspecified) belongs 3.03; to `CC(F)(F)CCC(=O)Nc1ccccc1`, 2.12.
To `O=C(NC1CCCCC(F)(F)C1)c1ccccc1` (stereo unspecified) belongs 2.57.
To `O=C(N[C@H]1C[C@@H](CF)C1)c1ccccc1` belongs 1.77.
On to `CCC(F)(F)CNC(=O)c1ccccc1`, for which the log partition coefficient (logP) was 2.04.
For the compound `O=C(Nc1ccccc1)[C@@H]1CC[C@H]1F`, the logP was 2.04.
To `CC12CC(CN1C(=O)c1ccccc1)C2` belongs 1.75; to `O=C(c1ccccc1)N1CCC(C(F)F)C1` (stereo unspecified), 1.4.
`O=C(c1ccccc1)N1CCCCC1` yielded a logP of 1.39.
To `O=C(c1ccccc1)N1CC2CC(C1)CC(F)(F)C2` belongs 1.59.

In general, logP refers to a log measure of how a compound divides between an organic and an aqueous phase.

For the origin of these results see the SangsterLogP compilation.
